Source: patent US5502035A, “N-terminus modified analogs of LHRH” (Tap Holdings Inc., priority 1994, dated 1996)
Non-standard residues stand in square brackets, D forms with d. Residues, ends and D or L forms follow the SMILES beside them. Groups on a side chain read outwards from the residue. *: point of attachment. Shikimoyl = O=C(C1=C[C@@H](O)[C@@H](O)[C@H](O)C1)*; dPhe(4-Cl) = N[C@H](Cc1ccc(Cl)cc1)C(=O)O; d2Nal = N[C@H](Cc1ccc2ccccc2c1)C(=O)O; Lys(iPr) = CC(C)NCCCC[C@H](N)C(=O)O; NMeY = CN[C@@H](Cc1ccc(O)cc1)C(=O)O; d3Pal = N[C@H](Cc1cccnc1)C(=O)O; Salicyloyl = O=C(c1ccccc1O)*; Nicotinoyl = O=C(c1cccnc1)*; Ava = NCCCCC(=O)O; GABA = NCCCC(=O)O; βAla = NCCC(=O)O

Molecular target: T1, LHRH (Rattus norvegicus, UniProt P30969)
T1 construct: endogenous in cells; host or cells: rat pituitary cells (own knowledge of the cited Haviv 1989 method)
T1 sequence (P30969 1-327): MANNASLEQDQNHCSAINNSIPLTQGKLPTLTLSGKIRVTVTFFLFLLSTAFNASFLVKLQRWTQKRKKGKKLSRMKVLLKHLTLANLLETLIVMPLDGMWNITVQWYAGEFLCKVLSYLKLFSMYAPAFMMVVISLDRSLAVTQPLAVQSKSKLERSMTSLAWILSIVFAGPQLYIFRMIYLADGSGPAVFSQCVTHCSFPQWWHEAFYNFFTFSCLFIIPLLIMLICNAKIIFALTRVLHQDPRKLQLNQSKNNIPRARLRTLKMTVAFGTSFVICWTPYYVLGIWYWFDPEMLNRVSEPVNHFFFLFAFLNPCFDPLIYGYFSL
Test: in vitro test for LHRH antagonist potency (pA2)
Type: cell-based
Details: negative logarithm of the antagonist concentration required to shift the response curve produced by the agonist leuprolide to two-fold higher concentration
Description: Representative compounds of the present invention were evaluated in an in vitro test for LHRH antagonist potency (pA2). The test employed the method detailed in F. Haviv, et al. J. Med. Chem., 32:2340-2344 (1989). The values of pA2 are the negative logarithms of the concentration of the particular antagonist test compound required to shift the response curve produced by the agonist leuprolide to two-fold higher concentration. (Leuprolide is the LHRH agonist having the structure 5-oxo-Pro^1 -His^2 -Trp^3 -Ser^4 -Tyr^5 -D-Leu^6 -Leu^7 -Arg^8 -Pro^9 -NHEt and is disclosed and claimed in U.S. Pat. No. 4,005,063.) Typically pA2 values of 9.5 or greater are indicative of good LHRH antagonist potency, with values of 10.0 or greater being preferred.

SMILES | Kb
CC(C)C[C@H](NC(=O)[C@@H](CCCCNC(=O)c1cccnc1)NC(=O)[C@H](Cc1ccc(O)cc1)N(C)C(=O)[C@H](CO)NC(=O)[C@@H](Cc1cccnc1)NC(=O)[C@@H](Cc1ccc(Cl)cc1)NC(=O)[C@@H](Cc1ccc2ccccc2c1)NC(=O)CNC(=O)c1ccccc1O)C(=O)N[C@@H](CCCCNC(C)C)C(=O)N1CCC[C@H]1C(=O)N[C@H](C)C(N)=O [Example 2h, N-Salicyl-Gly-D2Nal-D4ClPhe-D3Pal-Ser-NMeTyr-DLys(N-epsilon-Nicotinyl) -Leu-Lys(N-epsilon-Isopropyl)-Pro-DAlaNH2] (Salicyloyl-G[d2Nal][dPhe(4-Cl)][d3Pal]S[NMeY][dK](Nicotinoyl)L[Lys(iPr)]P[dA]-NH2) | 10 pM
CC(C)C[C@H](NC(=O)[C@@H](CCCCNC(=O)c1cccnc1)NC(=O)[C@H](Cc1ccc(O)cc1)N(C)C(=O)[C@H](CO)NC(=O)[C@@H](Cc1cccnc1)NC(=O)[C@@H](Cc1ccc(Cl)cc1)NC(=O)[C@@H](Cc1ccc2ccccc2c1)NC(=O)CNC(=O)[C@@H]1CCCO1)C(=O)N[C@@H](CCCCNC(C)C)C(=O)N1CCC[C@H]1C(=O)N[C@H](C)C(N)=O [Example 4, N-(S)-Tetrahydrofur-2-oyl-Gly-D2Nal-D4ClPhe-D3Pal-Ser-NMeTyr-DLys(Nicotinyl) -Leu-Lys(N-epsilon-Isopropyl)-Pro-DAlaNH2] | 7.94 pM
CC(C)C[C@H](NC(=O)[C@@H](CCCCNC(=O)c1cccnc1)NC(=O)[C@H](Cc1ccc(O)cc1)N(C)C(=O)[C@H](CO)NC(=O)[C@@H](Cc1cccnc1)NC(=O)[C@@H](Cc1ccc(Cl)cc1)NC(=O)[C@@H](Cc1ccc2ccccc2c1)NC(=O)CNC(=O)[C@H]1CCCO1)C(=O)N[C@@H](CCCCNC(C)C)C(=O)N1CCC[C@H]1C(=O)N[C@H](C)C(N)=O [Example 5, N-(R) Tetrahydrofur-2-oyl-Gly-D2Nal-D4ClPhe-D3Pal-Ser-NMeTyr-DLys(Nicotinyl) -Le u-Lys(N-epsilon-Isopropyl)-Pro-DAlaNH2] | 21.4 pM
CC(C)C[C@H](NC(=O)[C@@H](CCCCNC(=O)c1cccnc1)NC(=O)[C@H](Cc1ccc(O)cc1)N(C)C(=O)[C@H](CO)NC(=O)[C@@H](Cc1cccnc1)NC(=O)[C@@H](Cc1ccc(Cl)cc1)NC(=O)[C@@H](Cc1ccc2ccccc2c1)NC(=O)CCNC(=O)c1cccnc1)C(=O)N[C@@H](CCCCNC(C)C)C(=O)N1CCC[C@H]1C(=O)N[C@H](C)C(N)=O [Example 6a, N-Nicotinyl-3Aminopropionyl-D2Nal-D4ClPhe-D3Pal-Ser-NMeTyr-DLys(N-epsilon- Nicotinyl) -Leu-Lys(N-epsilon-Isopropyl)-Pro-DAlaNH2] ({Nicotinoyl-βAla}-[d2Nal][dPhe(4-Cl)][d3Pal]S[NMeY][dK](Nicotinoyl)L[Lys(iPr)]P[dA]-NH2) | 8.91 pM
CC(C)C[C@H](NC(=O)[C@@H](CCCCNC(=O)c1cccnc1)NC(=O)[C@H](Cc1ccc(O)cc1)N(C)C(=O)[C@H](CO)NC(=O)[C@@H](Cc1cccnc1)NC(=O)[C@@H](Cc1ccc(Cl)cc1)NC(=O)[C@@H](Cc1ccc2ccccc2c1)NC(=O)CCNC(=O)C1=C[C@@H](O)[C@@H](O)[C@H](O)C1)C(=O)N[C@@H](CCCCNC(C)C)C(=O)N1CCC[C@H]1C(=O)N[C@H](C)C(N)=O [Example 6b, N-Shikimyl-3Aminopropionyl-D2Nal-D4ClPhe-D3Pal-Ser-NMeTyr-DLys(N-epsilon-Nicotinyl) -Leu-Lys(N-epsilon-Isopropyl)-Pro-DAlaNH2] ({Shikimoyl-βAla}-[d2Nal][dPhe(4-Cl)][d3Pal]S[NMeY][dK](Nicotinoyl)L[Lys(iPr)]P[dA]-NH2) | 15.8 pM
CC(C)C[C@H](NC(=O)[C@@H](CCCCNC(=O)c1cccnc1)NC(=O)[C@H](Cc1ccc(O)cc1)N(C)C(=O)[C@H](CO)NC(=O)[C@@H](Cc1cccnc1)NC(=O)[C@@H](Cc1ccc(Cl)cc1)NC(=O)[C@@H](Cc1ccc2ccccc2c1)NC(=O)CCCNC(=O)c1cccnc1)C(=O)N[C@@H](CCCCNC(C)C)C(=O)N1CCC[C@H]1C(=O)N[C@H](C)C(N)=O [Example 6c, N-Nicotinyl-4Aminobutyryl-D2Nal-D4ClPhe-D3Pal-Ser-NMeTyr-DLys(N-epsilon-Nicotinyl) -Leu-Lys(N-epsilon-Isopropyl)-Pro-DAlaNH2] ({Nicotinoyl-GABA}-[d2Nal][dPhe(4-Cl)][d3Pal]S[NMeY][dK](Nicotinoyl)L[Lys(iPr)]P[dA]-NH2) | 22.4 pM
CC(C)C[C@H](NC(=O)[C@@H](CCCCNC(=O)c1cccnc1)NC(=O)[C@H](Cc1ccc(O)cc1)N(C)C(=O)[C@H](CO)NC(=O)[C@@H](Cc1cccnc1)NC(=O)[C@@H](Cc1ccc(Cl)cc1)NC(=O)[C@@H](Cc1ccc2ccccc2c1)NC(=O)CCCNC(=O)C1=C[C@@H](O)[C@@H](O)[C@H](O)C1)C(=O)N[C@@H](CCCCNC(C)C)C(=O)N1CCC[C@H]1C(=O)N[C@H](C)C(N)=O [Example 6d, N-Shikimyl-4-Aminobutyryl-D2Nal-D4ClPhe-D3Pal-Ser-NMeTyr-DLys(N-epsilon-Nicotinyl) -Leu-Lys(N-epsilon-Isopropyl)-Pro-DAlaNH2] ({Shikimoyl-GABA}-[d2Nal][dPhe(4-Cl)][d3Pal]S[NMeY][dK](Nicotinoyl)L[Lys(iPr)]P[dA]-NH2) | 12.6 pM
CC(C)C[C@H](NC(=O)[C@@H](CCCCNC(=O)c1cccnc1)NC(=O)[C@H](Cc1ccc(O)cc1)N(C)C(=O)[C@H](CO)NC(=O)[C@@H](Cc1cccnc1)NC(=O)[C@@H](Cc1ccc(Cl)cc1)NC(=O)[C@@H](Cc1ccc2ccccc2c1)NC(=O)CCCCNC(=O)C1=C[C@@H](O)[C@@H](O)[C@H](O)C1)C(=O)N[C@@H](CCCCNC(C)C)C(=O)N1CCC[C@H]1C(=O)N[C@H](C)C(N)=O [Example 6f, N-Shikimyl-5Aminovaleryl-D2Nal-D4ClPhe-D3Pal-Ser-NMeTyr-DLys(N-epsilon-Nicotinyl) -Leu-Lys(N-epsilon-Isopropyl)-Pro-DAlaNH2] ({Shikimoyl-Ava}-[d2Nal][dPhe(4-Cl)][d3Pal]S[NMeY][dK](Nicotinoyl)L[Lys(iPr)]P[dA]-NH2) | 25.7 pM
CC(C)C[C@H](NC(=O)[C@@H](CCCCNC(=O)c1cccnc1)NC(=O)[C@H](Cc1ccc(O)cc1)N(C)C(=O)[C@H](CO)NC(=O)[C@@H](Cc1cccnc1)NC(=O)[C@@H](Cc1ccc(Cl)cc1)NC(=O)[C@@H](Cc1ccc2ccccc2c1)NC(=O)[C@@H](CO)NC(=O)C1=C[C@@H](O)[C@@H](O)[C@H](O)C1)C(=O)N[C@@H](CCCCNC(C)C)C(=O)N1CCC[C@H]1C(=O)N[C@H](C)C(N)=O [Example 7, N-Shikimyl-DSer-D2Nal-D4ClPhe-D3Pal-Ser-NMeTyr-DLys(N-epsilon-Nicotinyl) -Leu-Lys(N-epsilon-Isopropyl)-Pro-DAlaNH2] (Shikimoyl-[dS][d2Nal][dPhe(4-Cl)][d3Pal]S[NMeY][dK](Nicotinoyl)L[Lys(iPr)]P[dA]-NH2) | 26.3 pM
CC(C)C[C@H](NC(=O)[C@@H](CCCCNC(=O)CNC(=O)c1cccnc1)NC(=O)[C@H](Cc1ccc(O)cc1)N(C)C(=O)[C@H](CO)NC(=O)[C@@H](Cc1cccnc1)NC(=O)[C@@H](Cc1ccc(Cl)cc1)NC(=O)[C@@H](Cc1ccc2ccccc2c1)NC(=O)CNC(=O)c1cccnc1)C(=O)N[C@@H](CCCCNC(C)C)C(=O)N1CCC[C@H]1C(=O)N[C@H](C)C(N)=O [Example 8, N-Nicotinyl-Gly-D2Nal-D4ClPhe-D3Pal-Ser-NMeTyr-DLys(Gly-Nicotinyl)-Leu-Lys (N-epsilon-Isopropyl)-Pro-DAlaNH2] (Nicotinoyl-G[d2Nal][dPhe(4-Cl)][d3Pal]S[NMeY][dK]([Gly-Nicotinoyl])L[Lys(iPr)]P[dA]-NH2) | 20.4 pM
